Results from patent US12030835B2, “Substituted amide compounds useful as farnesoid X receptor modulators” (BRISTOL-MYERS SQUIBB COMPANY, priority 2019, dated 2024).

Each compound was assayed against T1, human FXR (Homo sapiens, UniProt Q96RI1) (assay: transient human FXR/Gal4-luciferase reporter assay). Conditions: Gal4-hFXR (ligand binding domain) fusion transiently transfected in HEK293 Gal4-luciferase reporter cells; overnight incubation; response as percentage of 8 μM GW-4064 control.
T1 construct: expressed in transfected cells
T1 sequence (Q96RI1 262-486 limits assumed): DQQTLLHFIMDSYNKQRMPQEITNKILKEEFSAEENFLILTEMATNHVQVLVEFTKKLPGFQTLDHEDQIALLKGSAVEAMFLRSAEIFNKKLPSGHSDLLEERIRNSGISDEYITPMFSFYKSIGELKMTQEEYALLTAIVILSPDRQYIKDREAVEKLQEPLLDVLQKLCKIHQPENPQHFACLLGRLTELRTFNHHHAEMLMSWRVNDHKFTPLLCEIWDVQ
Type: cell-based
Experimental: A Gal4-hFXR fusion construct reporter system was used as the primary assay to characterize compound activity. A construct including 5 copies of the Gal4 promoter response element upstream of a firefly luciferase reporter cDNA was stably expressed in HEK293 cells. This reporter cell line was maintained in Dulbecco's Modified Eagle's medium (DMEM; Gibco) supplemented with 1% penicillin-streptomycin (P/S) solution, 500 μg/ml Zeocin and 10% charcoal/dextran-treated fetal bovine serum (cs-FBS) at 37° C. in a humidified 5% CO2 atmosphere. Another plasmid was constructed in which the human cytomegalovirus promoter in the pcDNA3.1 vector directs the expression of the cDNA encoding a fusion protein comprised of the DNA binding domain from the Gal4 transcription factor fused to the ligand binding domain from human FXR.
The day prior to transfection, the reporter cells in culture are detached from the plate with trypsin and plated into a T75 flask at a sufficient density to achieve approximately 90% confluence the next morning. The transfection reagents are prepared by separately diluting 25 μg of the pcDNA3.1-Gal4-FXR plasmid into 1.87 mL of Opti-MEM (Thermo-Fisher), and 40 μL of Lipofectamine 2000 (Thermo-Fisher) into 1.87 mL of Opti-MEM, and then adding the diluted DNA solution into the diluted Lipofectamine 2000 solution and incubating at room temperature for 15-20 minutes. The mixture is further diluted with 10 ml of a solution comprised of DMEM, 10% cs-FBS, and 1% P/S immediately prior to transferring to the cells. The maintenance culture media is aspirated from the cells and the final transfection mixture is added before the cells are incubated overnight at 37° C. in a humidified 5% CO2 atmosphere. This protocol can be scaled up, and the transiently transfected cells can be cryopreserved in an assay-ready format.
For compound testing, 100 nL of the compounds (serial dilutions in DMSO) are dispensed with an Echo acoustic dispenser (Labcyte) into the wells of a Corning/Costar clear bottom 384-well white plate. The transfected cells are harvested, counted, and diluted such that 10-25,000 cells in 25 μL are plated into each well of the 384-well compound assay plate. The compound-treated cells are incubated overnight at 37° C. in a humidified 5% CO2 atmosphere. The next morning 25 μL of Steady-Glo (Promega) are added to each well of the plate, the mixture is incubated for 15 min. with shaking, and luminescence is measured on an Envision (Perkin Elmer) plate reader.

Row | Compound | EC50
1 | COC(=O)/C=C(\C)c1cccc(N(CC23CCC(c4ccc(N5CCOCC5)cc4)(CC2)CC3)C(=O)C2CCCCC2)c1 [Example 14, Methyl (E)-3-(3-(N-((4-(4-morpholinophenyl)bicyclo[2.2.2]octan-1-yl)methyl)cyclohexanecarboxamido)phenyl)but-2-enoate] | 1150 nM
2 | COC(=O)C1=Cc2cccc(N(CC34CCC(c5ccc(C6CC6)cc5)(CC3)CC4)C(=O)C3CCCCC3)c2CC1 [Example 30, Methyl 5-(N-((4-(4-cyclopropylphenyl)bicyclo[2.2.2]octan-1-yl)methyl)cyclohexanecarboxamido)-3,4-dihydronaphthalene-2-carboxylate] | 195 nM
3 | COC(=O)C1=Cc2cccc(N(CC34CCC(c5ccc6c(cnn6C)c5)(CC3)OC4)C(=O)C3CCCCC3)c2CC1 [Example 45, Methyl 5-(N-((1-(1-methyl-1H-indazol-5-yl)-2-oxabicyclo[2.2.2]octan-4-yl)methyl)cyclohexanecarboxamido)-3,4-dihydronaphthalene-2-carboxylate] | 1150 nM
4 | CN(C)c1ccc(C23CCC(CN(C(=O)C4CCCCC4)c4cccc(/C=C/C(=O)O)c4)(CC2)CC3)cc1 [Example 2, (E)-3-(3-(N-((4-(4-(dimethylamino)phenyl)bicyclo[2.2.2]octan-1-yl)methyl)cyclohexanecarboxamido)phenyl)acrylic Acid] | 1520 nM
5 | COC(=O)C1=Cc2cccc(N(CC34CCC(c5ccc(N6CCOCC6)cc5)(CC3)CC4)C(=O)C3CCCCC3)c2CC1 [Example 11, Methyl 5-(N-((4-(4-morpholinophenyl)bicyclo[2.2.2]octan-1-yl)methyl)cyclohexanecarboxamido)-3,4-dihydronaphthalene-2-carboxylate] | 2740 nM
6 | COC(=O)/C=C(\C)c1cccc(N(CC23CCC(c4nc(C)no4)(CC2)CC3)C(=O)C2CCCCC2)c1 [Example 19, Methyl (E)-3-(3-(N-((4-(3-methyl-1,2,4-oxadiazol-5-yl)bicyclo[2.2.2]octan-1-yl)methyl)cyclohexanecarboxamido)phenyl)but-2-enoate] | 551 nM

More lines, in order of falling EC50, values ahead:

Row | EC50 | Compound
7 | 1430 nM | COC(=O)/C=C/c1cccc(N(CC23CCC(c4ccc(C(C)C)cc4)(CC2)CC3)C(=O)C2CC2)c1 [Example 39, Methyl (E)-3-(3-(N-((4-(4-isopropylphenyl)bicyclo[2.2.2]octan-1-yl)methyl)cyclopropanecarboxamido)phenyl)acrylate]
8 | 576 nM | COC(=O)/C=C(\C)c1cccc(N(CC23CCC(c4ccc(OC)cc4)(CC2)CC3)C(=O)C2CCCCC2)c1 [Example 16, Methyl (E)-3-(3-(N-((4-(4-methoxyphenyl)bicyclo[2.2.2]octan-1-yl)methyl)cyclohexanecarboxamido)phenyl)but-2-enoate]
9 | 446 nM | COc1ccc(C23CCC(CN(C(=O)C4CCCCC4)c4cccc(/C=C/c5nc(C)no5)c4)(CC2)CC3)cc1 [Example 35, (E)-N-((4-(4-methoxyphenyl)bicyclo[2.2.2]octan-1-yl)methyl)-N-(3-(2-(3-methyl-1,2,4-oxadiazol-5-yl)vinyl)phenyl)cyclohexanecarboxamide]
10 | 414 nM | COC(=O)/C=C/c1cccc(N(CC23CCC(c4nc5ccccc5s4)(CC2)CC3)C(=O)C2CC2)c1 [Example 33, Methyl (E)-3-(3-(N-((4-(benzo[d]thiazol-2-yl)bicyclo[2.2.2]octan-1-yl)methyl)cyclopropanecarboxamido)phenyl)acrylate]
11 | 395 nM | COC(=O)/C=C/c1cccc(N(CC23CCC(c4ccccc4)(CC2)CC3)C(=O)C2CCCCC2)c1 [Example 7, Methyl (E)-3-(3-(N-((4-phenylbicyclo[2.2.2]octan-1-yl)methyl)cyclohexanecarboxamido)phenyl)acrylate]
12 | 243 nM | COC(=O)/C=C/c1cccc(N(CC23CCC(c4ccc(OC)cc4)(CC2)CC3)C(=O)C2CCCCC2)c1 [Example 15, Methyl (E)-3-(3-(N-((4-(4-methoxyphenyl)bicyclo[2.2.2]octan-1-yl)methyl)cyclohexanecarboxamido)phenyl)acrylate]
